Counter-ions that a name gives are not always drawn.
Experiments:
TGR5 (STC1 cell line) = target: T1, TGR5 (STC1 cell line) (Mus musculus, UniProt Q80SS6); experiment: STC1 cAMP Agonist EC50 Determination
T1 sequence (Q80SS6 1-329): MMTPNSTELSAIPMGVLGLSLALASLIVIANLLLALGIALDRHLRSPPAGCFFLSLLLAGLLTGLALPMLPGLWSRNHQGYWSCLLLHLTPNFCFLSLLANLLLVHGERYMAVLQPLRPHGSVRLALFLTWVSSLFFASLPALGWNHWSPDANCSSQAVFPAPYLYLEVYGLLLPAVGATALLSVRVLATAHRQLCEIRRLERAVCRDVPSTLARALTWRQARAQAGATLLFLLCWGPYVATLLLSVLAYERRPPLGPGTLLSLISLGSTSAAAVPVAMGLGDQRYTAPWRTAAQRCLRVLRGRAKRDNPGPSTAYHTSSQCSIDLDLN

[1] = target: T2, TGR5 (NCI-H716 cell line) (Homo sapiens, UniProt Q8TDU6); experiment: NCI-H716 cAMP Agonist EC50 Determination
T2 sequence (Q8TDU6 1-330): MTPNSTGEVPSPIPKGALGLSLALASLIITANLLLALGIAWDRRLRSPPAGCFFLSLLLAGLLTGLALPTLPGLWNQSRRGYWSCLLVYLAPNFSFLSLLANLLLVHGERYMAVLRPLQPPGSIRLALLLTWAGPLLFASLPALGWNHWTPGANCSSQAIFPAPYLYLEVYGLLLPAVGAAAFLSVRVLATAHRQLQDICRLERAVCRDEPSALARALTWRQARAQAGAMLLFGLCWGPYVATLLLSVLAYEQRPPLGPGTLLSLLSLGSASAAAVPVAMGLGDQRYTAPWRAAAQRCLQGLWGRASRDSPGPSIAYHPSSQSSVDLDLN

Compound: COc1cc(C2CCCc3nc(SCc4c(F)cc(CC5SC(=O)NC5=O)cc4F)n(-c4ccc(F)cc4)c32)ccc1Cl (centres unmarked) [Example 38, 5-(4-((7-(4-chloro-3-methoxyphenyl)-1-(4-fluorophenyl)-4,5,6,7-tetrahydro-1H-benzo[d]imidazol-2-ylthio)methyl)-3,5-difluorobenzyl)thiazolidine-2,4-dione trifluoroacetic acid]
- EC50 (TGR5 (STC1 cell line)): 1250 nM
- EC50 [1]: > 50 µM

Compound: C/N=C(\N)NCCCc1cc(F)c(CSc2nc3c(n2-c2ccc(F)cc2)C(c2ccc(Cl)c(OC)c2)CCC3)c(F)c1 (centres unmarked) [Example 39a, (E)-1-[3-[4-([[7-(4-chloro-3-methoxyphenyl)-1-(4-fluorophenyl)-4,5,6,7-tetrahydro-1H-1,3-benzodiazol-2-yl]sulfanyl]methyl)-3,5-difluorophenyl]propyl]-2-methylguanidine hydrochloride]
- EC50 (TGR5 (STC1 cell line)): 360 nM
- EC50 [1]: > 50 µM

Compound: COc1cc(C2CCCc3nc(SCc4c(F)cc(CCCN(C)C)cc4F)n(-c4ccc(F)cc4)c32)ccc1Cl (centres unmarked) [Example 39b, 3-(4-((7-(4-chloro-3-methoxyphenyl)-1-(4-fluorophenyl)-4,5,6,7-tetrahydro-1H-benzo[d]imidazol-2-ylthio)methyl)-3,5-difluorophenyl)-N,N-dimethylpropan-1-amine trifluoroacetic acid]
- EC50 (TGR5 (STC1 cell line)): 16300 nM
- EC50 [1]: > 50 µM

Compound: CCOC(=O)CCc1cc(F)c(CSc2nc3c(n2-c2ccc(F)cc2)C(c2ccc(Cl)c(OC)c2)CCC3)c(F)c1 (centres unmarked) [Example 40, Ethyl 3-(4-((7-(4-chloro-3-methoxyphenyl)-1-(4-fluorophenyl)-4,5,6,7-tetrahydro-1H-benzo[d]imidazol-2-ylthio)methyl)-3,5-difluorophenyl)propanoate trifluoroacetic acid]
- EC50 (TGR5 (STC1 cell line)): 1360 nM
- EC50 [1]: > 50 µM

Compound: COc1cc(C2CCCc3nc(SCc4c(F)cc(CCCO)cc4F)n(-c4ccc(F)cc4)c32)ccc1Cl (centres unmarked) [Example 41, 3-(4-((7-(4-chloro-3-methoxyphenyl)-1-(4-fluorophenyl)-4,5,6,7-tetrahydro-1H-benzo[d]imidazol-2-ylthio)methyl)-3,5-difluorophenyl)propan-1-ol trifluoroacetic acid]
- EC50 (TGR5 (STC1 cell line)): 890 nM
- EC50 [1]: > 50 µM

Compound: COc1cc(C2CCCc3nc(SCc4c(F)cc(CCCNC(=N)N)cc4F)n(-c4ccc(F)cc4)c32)ccc1Cl (centres unmarked) [Example 42, 1-(3-(4-((7-(4-chloro-3-methoxyphenyl)-1-(4-fluorophenyl)-4,5,6,7-tetrahydro-1H-benzo[d]imidazol-2-ylthio)methyl)-3,5-difluorophenyl)propyl)guanidine trifluoroacetic acid]
- EC50 (TGR5 (STC1 cell line)): 530 nM
- EC50 [1]: > 50 µM

Compound: COc1cc(C2CCCc3nc(SCc4c(F)cc(CCCN/C(N)=N/C#N)cc4F)n(-c4ccc(F)cc4)c32)ccc1Cl (centres unmarked) [Example 43, (E)-1-(3-(4-((7-(4-chloro-3-methoxyphenyl)-1-(4-fluorophenyl)-4,5,6,7-tetrahydro-1H-benzo[d]imidazol-2-ylthio)methyl)-3,5-difluorophenyl)propyl)-2-cyanoguanidine hydrochloride]
- EC50 (TGR5 (STC1 cell line)): 670 nM
- EC50 [1]: > 50 µM

Compound: COc1cc(C2CCCc3nc(SCc4c(F)cc(CCC(=O)O)cc4F)n(-c4ccc(F)cc4)c32)ccc1Cl (centres unmarked) [Example 44, 3-(4-((7-(4-chloro-3-methoxyphenyl)-1-(4-fluorophenyl)-4,5,6,7-tetrahydro-1H-benzo[d]imidazol-2-ylthio)methyl)-3,5-difluorophenyl)propanoic acid trifluoroacetic acid]
- EC50 (TGR5 (STC1 cell line)): 1390 nM
- EC50 [1]: > 50 µM

Compound: COc1cc(C2CCCc3nc(SCc4c(F)cc(CCC(N)=O)cc4F)n(-c4ccc(F)cc4)c32)ccc1Cl (centres unmarked) [Example 45, 3-(4-((7-(4-chloro-3-methoxyphenyl)-1-(4-fluorophenyl)-4,5,6,7-tetrahydro-1H-benzo[d]imidazol-2-ylthio)methyl)-3,5-difluorophenyl)propanamide trifluoroacetic acid]
- EC50 (TGR5 (STC1 cell line)): 350 nM
- EC50 [1]: > 50 µM

Compound: COc1cc(C2CCCc3nc(SCc4c(F)cc(CCC#N)cc4F)n(-c4ccc(F)cc4)c32)ccc1Cl (centres unmarked) [Example 46, 3-(4-((7-(4-chloro-3-methoxyphenyl)-1-(4-fluorophenyl)-4,5,6,7-tetrahydro-1H-benzo[d]imidazol-2-ylthio)methyl)-3,5-difluorophenyl)propanenitrile trifluoroacetic acid]
- EC50 (TGR5 (STC1 cell line)): 140 nM
- EC50 [1]: > 50 µM

Compound: COc1cc(C2CCCc3nc(SCc4c(F)cc(CC/C=N/NC(=N)N)cc4F)n(-c4ccc(F)cc4)c32)ccc1Cl (centres unmarked) [Example 47, (E)-2-(3-(4-((7-(4-chloro-3-methoxyphenyl)-1-(4-fluorophenyl)-4,5,6,7-tetrahydro-1H-benzo[d]imidazol-2-ylthio)methyl)-3,5-difluorophenyl)propylidene) hydrazinecarboximidamide hydrochloride]
- EC50 (TGR5 (STC1 cell line)): 370 nM
- EC50 [1]: 47.3 µM

Compound: C/N=C(\N)N/N=C/CCc1cc(F)c(CSc2nc3c(n2-c2ccc(F)cc2)C(c2ccc(Cl)c(OC)c2)CCC3)c(F)c1 (centres unmarked) [Example 48, (1E,2E)-2-(3-(4-((7-(4-chloro-3-methoxyphenyl)-1-(4-fluorophenyl)-4,5,6,7-tetrahydro-1H-benzo[d]imidazol-2-ylthio)methyl)-3,5-difluorophenyl)propylidene)-N′-methylhydrazinecarboximidamide hydrochloride]
- EC50 (TGR5 (STC1 cell line)): 350 nM
- EC50 [1]: > 50 µM

Compound: COc1cc(C2CCCc3nc(SCc4c(F)cc(CCc5nnn[nH]5)cc4F)n(-c4ccc(F)cc4)c32)ccc1Cl (centres unmarked) [Example 49, 2-(4-(2-(1H-tetrazol-5-yl)ethyl)-2,6-difluorobenzylthio)-7-(4-chloro-3-methoxyphenyl)-1-(4-fluorophenyl)-4,5,6,7-tetrahydro-1H-benzo[d]imidazole trifluoroacetic acid]
- EC50 (TGR5 (STC1 cell line)): 940 nM
- EC50 [1]: > 50 µM

Compound: COc1cc(C2CCCc3nc(SCc4c(F)cncc4F)n(-c4ccc(F)cc4)c32)ccc1Cl (centres unmarked) [Example 50, 7-(4-chloro-3-methoxyphenyl)-2-((3,5-difluoropyridin-4-yl)methylthio)-1-(4-fluorophenyl)-4,5,6,7-tetrahydro-1H-benzo[d]imidazole trifluoroacetic acid]
- EC50 (TGR5 (STC1 cell line)): 280 nM
- EC50 [1]: 34.7 µM

Compound: COc1cc(C2CCCc3nc(SCc4ccncc4F)n(-c4ccc(F)cc4)c32)ccc1Cl (centres unmarked) [Example 51, 2-((3-fluoropyridin-4-yl)methylthio)-7-(4-chloro-3-methoxyphenyl)-1-(4-fluorophenyl)-4,5,6,7-tetrahydro-1H-benzo[d]imidazole trifluoroacetic acid]
- EC50 (TGR5 (STC1 cell line)): 5500 nM
- EC50 [1]: > 50 µM

Compound: COc1cc(C2CCCc3nc(SCc4ncccc4F)n(-c4ccc(F)cc4)c32)ccc1Cl (centres unmarked) [Example 52, 2-((3-fluoropyridin-2-yl)methylthio)-7-(4-chloro-3-methoxyphenyl)-1-(4-fluorophenyl)-4,5,6,7-tetrahydro-1H-benzo[d]imidazole trifluoroacetic acid]
- EC50 (TGR5 (STC1 cell line)): 450 nM
- EC50 [1]: > 50 µM

Compound: COc1cc(C2CCCc3nc(SCc4c(Cl)cncc4Cl)n(-c4ccc(F)cc4)c32)ccc1Cl (centres unmarked) [Example 54]
- EC50 (TGR5 (STC1 cell line)): 4410 nM
- EC50 [1]: > 50 µM

Compound: COc1cc(C2CCCc3nc(SCc4c(F)cncc4Cl)n(-c4ccc(F)cc4)c32)ccc1Cl (centres unmarked) [Example 55, 7-(4-chloro-3-methoxyphenyl)-2-[[(3-chloro-5-fluoropyridin-4-yl)methyl]sulfanyl]-1-(4-fluorophenyl)-4,5,6,7-tetrahydro-1H-1,3-benzodiazole bis(trifluoroacetic acid)]
- EC50 (TGR5 (STC1 cell line)): 180 nM
- EC50 [1]: > 50 µM

Compound: COc1cc(C2CCCc3nc(SCc4c(F)cncc4Br)n(-c4ccc(F)cc4)c32)ccc1Cl (centres unmarked) [Example 56, 2-((3-bromo-5-fluoropyridin-4-yl)methylthio)-7-(4-chloro-3-methoxyphenyl)-1-(4-fluorophenyl)-4,5,6,7-tetrahydro-1H-benzo[d]imidazole trifluoroacetic acid]
- EC50 (TGR5 (STC1 cell line)): 130 nM
- EC50 [1]: > 50 µM

Compound: COc1cc(C2CCCc3nc(SCc4ncccn4)n(-c4ccc(F)cc4)c32)ccc1Cl (centres unmarked) [Example 57, 7-(4-chloro-3-methoxyphenyl)-1-(4-fluorophenyl)-2-[(pyrimidin-2-ylmethyl)sulfanyl]-4,5,6,7-tetrahydro-1H-1,3-benzodiazole trifluoroacetic acid]
- EC50 (TGR5 (STC1 cell line)): 650 nM
- EC50 [1]: > 50 µM

Compound: COc1cc(C2CCCc3nc(SCc4sccc4Cl)n(-c4ccc(F)cc4)c32)ccc1Cl (centres unmarked) [Example 58, 2-((3-chlorothiophen-2-yl)methylthio)-7-(4-chloro-3-methoxyphenyl)-1-(4-fluorophenyl)-4,5,6,7-tetrahydro-1H-benzo[d]imidazole trifluoroacetic acid]
- EC50 (TGR5 (STC1 cell line)): 1100 nM
- EC50 [1]: > 50 µM

Compound: COc1cc(C2CCCc3nc(SCc4c(F)c[n+]([O-])cc4F)n(-c4ccc(F)cc4)c32)ccc1Cl (centres unmarked) [Example 59, 4-((7-(4-chloro-3-methoxyphenyl)-1-(4-fluorophenyl)-4,5,6,7-tetrahydro-1H-benzo[d]imidazol-2-ylthio)methyl)-3,5-difluoropyridine 1-oxide trifluoroacetic acid]
- EC50 (TGR5 (STC1 cell line)): 2020 nM
- EC50 [1]: > 50 µM
